Values after ≈ are worked out from the molar mass of the structure shown. Non-standard residues stand in square brackets, D forms with d. Residues, ends and D or L forms follow the SMILES beside them. *: point of attachment. Galloyl = O=C(c1cc(O)c(O)c(O)c1)*; Orn = NCCC[CH](N)C(=O)O
How the values were obtained:
[1] = tested on: UEA-1 binding sites on Caco-2 cell membrane preparations; test: Two tier competition assay: compound incubated alone with membranes, biotinylated UEA-1 added in next step; parameters: species or system human; conditions: for Av % Inhibition / Avg % Inhibition: Two Tier Assay; for Av % Inhibition: library MSI 22; for Avg % Inhibition: library MSI 26
Description: (§1) The epithelial cell binding ability of compounds and mixtures obtained from synthetic combinatorial libraries was determined by competition assays. These assays were set up to measure the inhibition of binding of biotinylated UEA-1 to membrane preparations of the epithelial cell line Caco-2 (colon carcinoma cells-2), by compounds and mixtures of the combinatorial libraries. This cell line is a conventional model for epithelial cells.
(§2) Two competition inhibition assays were used in this case, namely single tier and two tier assays. These assays differed from each other in that in the single tier assay, the mixtures/compounds and the biotinylated UEA-1 were incubated together with the Caco-2 cell membrane preparations, while in case of the two-tier assay, the mixture/compounds were allowed to incubate alone with the cell membranes in the absence of biotinylated UEA-1, which was added in the next step. Addition of the extra step in the two-tier assay was to ensure that the compounds inhibiting the binding of biotinylated UEA-1 to the Caco-2 cell membranes were doing so by themselves binding to surface receptors on the Caco-2 cells and not to the biotinylated UEA-1. Each assay will be described in detail.
(§3) • 1. Confluent Caco-2 cell monolayers (grown in 75 cm^2 flasks for up to 1 week at 37° C. and 5% CO2) were washed twice in Dulbecco's PBS (DPBS). • 2. Cell monolayers were treated with 10 mM EDTA-DPBS for 5–10 min at 37° C. and cells were harvested by centrifugation at 1000 rpm for 5 min. • 3. Cells were washed 3 times in DPBS. • 4. […] The cells were homogenised for 30 sec. • 6. The homogenates were centrifuged in hard walled tubes at 40,000 rpm for 45 min at 4° C. • 7. […] The supernatant was removed and stored on ice. The procedure was repeated adding the second supernatant to the first. • 8. The protein concentration was determined using e.g. a Bio-Rad protein assay. • 9. All fractions were stored at −80° C. prior to use. Single Tier Assays: • 1. 96-well microtiter plates were coated with membrane preparations of Caco-2 cells either by allowing them to incubate on the plates for 2½ hours at room temperature or by incubating them overnight at 4° C. 100 μl of 10 μg/ml (in 0.05 M carbonate buffer, pH 9.6) of membrane preparation was added to each well. • 2. The plates were flicked out, patted dry and blocked with bovine serum albumin (BSA)/DPBS (200 μl/well) for 1 to 4 hours at room temperature after which they were washed three times in water. • 3. […] Control wells were also set up in which the Caco-2 cell membrane preparations were incubated with unconjugated UEA-1. […] Following overnight incubation the plates were washed thoroughly (3–6 times). The plates were flicked out, patted dry and biotinylated UEA-1 was detected with commercial Streptavidin conjugated to horseradish peroxidase (HRP) (CalBiochem). […] The plates were left to incubate for an hour at room temperature. • 6. The plates were then washed 3–6 times and the biotin-streptavidin binding was detected by adding an HRP substrate OPD (orthophenyl diamine) to each well. 100 μl/well of this substrate at a final concentration of 1.6 mg/ml was added to each well. Before adding to the wells, this substrate was activated by addition of 50 μl of 3% H2O2 per plate and the reaction was allowed to develop in the dark. • 7. The reaction was stopped by adding 50 μl of 4 N H2SO4 to each well after approximately 5–10 minutes or when sufficient colour had developed. The OD490 (absorbance at 490 nm) of each well was measured using a conventional 96 well plate reading spectrophotometer. Two Tier Assays: • 1. 96 well plates were coated with Caco-2 cell membrane preparations in the same manner as described in the single tier assay. • 2. […] 100 μl at these final concentrations were added to each well. • 4. The plates were then left to incubate overnight, a step that would allow the mixtures and compounds to interact with the Caco-2 cell membranes without the presence of the competitor (biotinylated UEA-1) itself. • 5. […]

[2] = tested on: UEA-1 binding sites on Caco-2 cell membrane preparations; test: Single tier competition assay: inhibition of biotinylated UEA-1 binding, compound and biotinylated UEA-1 incubated together; parameters: species or system human; conditions: for Av % Inhibition / Avg % Inhibtion: Single Tier Assay; for Av % Inhibition: library MSI 22; for Avg % Inhibtion: library MSI 26
Description: as §1, §2, §3

[3] = Table 8, galloyl constructs, read-out: IC 50 (uM) 2nd tier
[4] = Table 8, galloyl constructs, read-out: IC 50 (uM) 1st tier (converted)
[5] = library MSI 27, read-out: Two Tier Assay IC50
[6] = library MSI 27, read-out: Single Tier Assay IC50

Structure (SMILES) | IC 50 (ug/ml) 2nd tier ([1]; Table 8, galloyl constructs) | IC50 [1, 3] | IC 50 (ug/ml) 1st tier ([2]; Table 8, galloyl constructs) | IC50 [2, 4] | IC50 [1, 5] | IC50 [2, 6] | also measured
CC(=O)N[C@H](CCCCNC(=O)c1cc(O)c(O)c(O)c1)C(=O)N[C@H](CCCCNC(=O)c1cc(O)c(O)c(O)c1)C(=O)N[C@H](CCCCNC(=O)c1cc(O)c(O)c(O)c1)C(=O)N[C@H](CCCCNC(=O)c1cc(O)c(O)c(O)c1)C(=O)N[C@H](CCCCNC(=O)c1cc(O)c(O)c(O)c1)C(N)=O [MSI 30 #8] (Ac-[dK](Galloyl)[dK](Galloyl)[dK](Galloyl)[dK](Galloyl)[dK](Galloyl)-NH2) | 15 µg/mL (≈ 10.3 µM) | 10 µM | 70 µg/mL (≈ 47.9 µM) | 48 µM |  |  | 
CC(=O)NC(CCCNC(=O)c1cc(O)c(O)c(O)c1)C(=O)NC(CCCNC(=O)c1cc(O)c(O)c(O)c1)C(=O)NC(CCCNC(=O)c1cc(O)c(O)c(O)c1)C(=O)NC(CCCNC(=O)c1cc(O)c(O)c(O)c1)C(N)=O (centres unmarked) [MSI 34 #23] (Ac-[Orn](Galloyl)[Orn](Galloyl)[Orn](Galloyl)[Orn](Galloyl)-NH2; configuration not given here) | 1 µg/mL (≈ 0.89 µM) | 1 µM | 6 µg/mL (≈ 5.34 µM) | 5 µM |  |  | 
CC(=O)NC(CCCCNC(=O)c1cc(O)c(O)c(O)c1)C(=O)NC(CCCCNC(=O)c1cc(O)c(O)c(O)c1)C(=O)NC(CCCCNC(=O)c1cc(O)c(O)c(O)c1)C(N)=O (centres unmarked) [Cpd 54] | 2 µg/mL (≈ 2.22 µM) | 3 µM | 4 µg/mL (≈ 4.44 µM) | 5 µM | 3.33 µM | 7.61 µM | Two Tier Assay IC50 ([1]; library MSI 27): 3.00 µg/mL; Single Tier Assay IC50 ([2]; library MSI 27): 6.85 µg/mL
CCOc1ccc(C[C@H](CNC)N(C)C[C@H](CC2CCCCC2)NC(=O)c2cc(O)c(O)c(O)c2)cc1 [D-Tyr (Et), L-chAla, Gallic Acid] |  |  |  |  |  |  | Av % Inhibition ([1]; 62.5 μg/ml): 31.8%; Av % Inhibition ([1]; 250 μg/ml): 52.7%; Av % Inhibition ([2]; 62.5 μg/ml): 8.5%; Av % Inhibition ([2]; 250 μg/ml): 33.3%
CC(=O)NC(CCCCNC(=O)c1ccc(O)cc1)C(=O)NC(CCCCNC(=O)c1ccc(O)cc1)C(N)=O (centres unmarked) [Cpd 39] |  |  |  |  | 285 µM | 450 µM | Two Tier Assay IC50 ([1]; library MSI 27): 158.60 µg/mL
NC(=O)C(CNC(=O)C(CNC(=O)c1cc(O)c(O)c(O)c1)NC(=O)c1cc(O)c(O)c(O)c1)NC(=O)CCCCCNC(=O)C(CNC(=O)c1cc(O)c(O)c(O)c1)NC(=O)c1cc(O)c(O)c(O)c1 (centres unmarked) [MSI 39 #4] | 0.8 µg/mL (≈ 0.802 µM) | 0.7 µM | 6 µg/mL (≈ 6.02 µM) | 5 µM |  |  | 
NC(=O)C(CCCCNC(=O)c1cc(O)c(O)c(O)c1)NC(=O)c1cc(O)c(O)c(O)c1 (centres unmarked) [Cpd 6] | 8 µg/mL (≈ 17.8 µM) | 17 µM | 11 µg/mL (≈ 24.5 µM) | 24 µM | 28.9 µM | 42.2 µM | Two Tier Assay IC50 ([1]; library MSI 27): 12.97 µg/mL; Single Tier Assay IC50 ([2]; library MSI 27): 18.97 µg/mL
COc1cc(C(=O)NCCCCC(NC(=O)c2cc(OC)c(OC)c(OC)c2)C(N)=O)cc(OC)c1OC (centres unmarked) [Cpd 4] |  |  |  |  | 469 µM | 469 µM | 
O=C(O)c1cc(O)cc(O)c1 [3,5-dihydroxybenzoic Acid, reference compound] |  |  |  |  |  |  | Avg % Inhibition ([1]; 62.5 μg/ml): −5%; Avg % Inhibition ([1]; 250 μg/ml): −7%; Avg % Inhibtion ([2]; 62.5 μg/ml): 0%; Avg % Inhibtion ([2]; 250 μg/ml): 1.1%
COC(=O)c1cc(O)c(O)c(O)c1 [Methyl 3,5,4-trihydroxybenzoate, reference compound] |  |  |  |  |  |  | Avg % Inhibition ([1]; 62.5 μg/ml): −11%; Avg % Inhibition ([1]; 250 μg/ml): −8%; Avg % Inhibtion ([2]; 62.5 μg/ml): 1%; Avg % Inhibtion ([2]; 250 μg/ml): 4.5%
CCC[C@H](CNC)N(C)C[C@H](NC(=O)c1cc(O)c(O)c(O)c1)C(C)C [D-Nve, D-Val, Gallic Acid] |  |  |  |  |  |  | Av % Inhibition ([1]; 62.5 μg/ml): 12.1%; Av % Inhibition ([1]; 250 μg/ml): 29.8%; Av % Inhibition ([2]; 62.5 μg/ml): 13.7%; Av % Inhibition ([2]; 250 μg/ml): 46%
CC(=O)NC(Cc1ccc(NC(=O)c2cc(O)c(O)c(O)c2)cc1)C(=O)NC(Cc1ccc(NC(=O)c2cc(O)c(O)c(O)c2)cc1)C(=O)NC(Cc1ccc(NC(=O)c2cc(O)c(O)c(O)c2)cc1)C(N)=O (centres unmarked) [MSI 34 #16] | 6 µg/mL (≈ 5.99 µM) | 6 µM | 3 µg/mL (≈ 2.99 µM) | 3 µM |  |  | 
CNC[C@H](Cc1ccc2ccccc2c1)N(C)C[C@H](Cc1ccc(Cl)cc1)NC(=O)c1cc(O)c(O)c(O)c1 [L-NapAla, L-pCl-Phe, Gallic Acid] |  |  |  |  |  |  | Av % Inhibition ([1]; 62.5 μg/ml): 26.7%; Av % Inhibition ([1]; 250 μg/ml): 54.7%; Av % Inhibition ([2]; 62.5 μg/ml): 31.5%; Av % Inhibition ([2]; 250 μg/ml): 46.9%
NC(=O)c1cc(O)c(O)c(O)c1 [3,4,5-trihydroxybenzamide, reference compound] |  |  |  |  |  |  | Avg % Inhibition ([1]; 62.5 μg/ml): 10.7%; Avg % Inhibition ([1]; 250 μg/ml): 41.4%; Avg % Inhibtion ([2]; 62.5 μg/ml): 41.7%; Avg % Inhibtion ([2]; 250 μg/ml): 21%
CC(=O)NC(CNC(=O)c1cc(O)c(O)c(O)c1)C(=O)NC(CNC(=O)c1cc(O)c(O)c(O)c1)C(=O)NC(CNC(=O)c1cc(O)c(O)c(O)c1)C(N)=O (centres unmarked) [MSI 34 #13] | 1st tier = 22nd tier = 2 ug/ml | 2 µM | 1st tier = 22nd tier = 2 ug/ml | 3 µM |  |  | 
COc1cc(C(=O)NCCCCC(NC(=O)C(CCCCNC(=O)c2cc(OC)c(O)c(OC)c2)NC(=O)C(CCCCNC(=O)c2cc(OC)c(O)c(OC)c2)NC(C)=O)C(N)=O)cc(OC)c1O (centres unmarked) [Cpd 49] |  |  |  |  | 111 µM | 120 µM | Two Tier Assay IC50 ([1]; library MSI 27): 108.80 µg/mL; Single Tier Assay IC50 ([2]; library MSI 27): 118.00 µg/mL
NC(=O)C(CCCCNC(=O)C(CCCCNC(=O)C(CCCCNC(=O)c1cc(O)c(O)c(O)c1)NC(=O)c1cc(O)c(O)c(O)c1)NC(=O)C(CCCCNC(=O)c1cc(O)c(O)c(O)c1)NC(=O)c1cc(O)c(O)c(O)c1)NC(=O)C(CCCCNC(=O)C(CCCCNC(=O)c1cc(O)c(O)c(O)c1)NC(=O)c1cc(O)c(O)c(O)c1)NC(=O)C(CCCCNC(=O)c1cc(O)c(O)c(O)c1)NC(=O)c1cc(O)c(O)c(O)c1 (centres unmarked) [MSI 30 #17] | 1st tier = 52nd tier = 5 ug/ml | 2 µM | 1st tier = 52nd tier = 5 ug/ml | 2 µM |  |  | 
NC(=O)[C@@H](CCCCNC(=O)c1cc(O)c(O)c(O)c1)NC(=O)[C@@H](CCCCNC(=O)c1cc(O)c(O)c(O)c1)NC(=O)[C@@H](CCCCNC(=O)c1cc(O)c(O)c(O)c1)NC(=O)[C@@H](CCCCNC(=O)c1cc(O)c(O)c(O)c1)NC(=O)[C@@H](CCCCNC(=O)c1cc(O)c(O)c(O)c1)NC(=O)c1cc(O)c(O)c(O)c1 [MSI 30 #10] (Galloyl-[dK](Galloyl)[dK](Galloyl)[dK](Galloyl)[dK](Galloyl)[dK](Galloyl)-NH2) | 5 µg/mL (≈ 3.18 µM) | 3 µM | 23 µg/mL (≈ 14.6 µM) | 14 µM |  |  | 
CCOc1cc(C(=O)NCCCCC(NC(=O)c2cc(OCC)c(OCC)c(OCC)c2)C(=O)NCCCCC(NC(=O)C(CCCCNC(=O)c2cc(OCC)c(OCC)c(OCC)c2)NC(=O)c2cc(OCC)c(OCC)c(OCC)c2)C(N)=O)cc(OCC)c1OCC (centres unmarked) [Cpd 19] |  |  |  |  | 186 µM | 186 µM | 
NC(=O)C(CCNC(=O)C(CCNC(=O)c1cc(O)c(O)c(O)c1)NC(=O)c1cc(O)c(O)c(O)c1)NC(=O)C(CCNC(=O)c1cc(O)c(O)c(O)c1)NC(=O)c1cc(O)c(O)c(O)c1 (centres unmarked) [MSI 34 #6] | 1 µg/mL (≈ 1.08 µM) | 1 µM | 0.6 µg/mL (≈ 0.648 µM) | 0.6 µM |  |  | 
